Usually IC50 stands for the concentration needed to halve the response being measured. The inhibition is the drop in the measured response relative to a control, in per cent.

The first data set deals with A549. Put plainly: Antiproliferative activity against human A549 cells after 48 hrs by MTT assay relative to control. The format is functional, cell-based. The note with it: A549, 48 h. (In general: Formazan colour is commonly taken as a measure of viable cells.)
`COc1cc(/C=C/C(=O)c2cccc(Oc3cc(O/N=[N+](\[O-])N4CCCCC4)c([N+](=O)[O-])cc3[N+](=O)[O-])c2)cc(OC)c1OC` had an IC50 of 4.65 µM.

Compound `CC(=O)N1N=C(c2cccc(Oc3cc(O/N=[N+](\[O-])N4CCCCC4)c([N+](=O)[O-])cc3[N+](=O)[O-])c2)CC1c1ccc(N(C)C)cc1` (configuration not stated) displayed an IC50 of 7.66 µM.

Compound `COc1ccc(/C=C/C(=O)c2cccc(Oc3cc(O/N=[N+](\[O-])N4CCCCC4)c([N+](=O)[O-])cc3[N+](=O)[O-])c2)cc1` yielded an IC50 of 8.58 µM.

In a further data set the test system is MCF-10A. Put plainly: Antiproliferative activity against human MCF10A cells after 48 hrs by MTT assay relative to control. In kind it is cell-based.
Conditions: not given
`COc1cc(/C=C/C(=O)c2cccc(Oc3cc(O/N=[N+](\[O-])N4CCCCC4)c([N+](=O)[O-])cc3[N+](=O)[O-])c2)cc(OC)c1OC` came in with an IC50 of 80.8 µM.

For `CC(=O)N1N=C(c2cccc(Oc3cc(O/N=[N+](\[O-])N4CCCCC4)c([N+](=O)[O-])cc3[N+](=O)[O-])c2)CC1c1ccc(N(C)C)cc1` (configuration not stated), the IC50 worked out at 95.3 µM.

For `COc1ccc(/C=C/C(=O)c2cccc(Oc3cc(O/N=[N+](\[O-])N4CCCCC4)c([N+](=O)[O-])cc3[N+](=O)[O-])c2)cc1`, the IC50 amounted to 113 µM.

Test system in the next data set: not listed separately
Put plainly: Selectivity ratio of IC50 for human U2OS cells to IC50 for human MDA-MB-231 cells. In kind it is functional.
Conditions: not given
As to `COc1cc(/C=C/C(=O)c2cccc(Oc3cc(O/N=[N+](\[O-])N4CCCCC4)c([N+](=O)[O-])cc3[N+](=O)[O-])c2)cc(OC)c1OC`, the “Ratio IC50” value is 1.4.

Consider `CC(=O)N1N=C(c2cccc(Oc3cc(O/N=[N+](\[O-])N4CCCCC4)c([N+](=O)[O-])cc3[N+](=O)[O-])c2)CC1c1ccc(N(C)C)cc1` (configuration not stated), for which the “Ratio IC50” value was determined as 1.2.

Turning to `COc1ccc(/C=C/C(=O)c2cccc(Oc3cc(O/N=[N+](\[O-])N4CCCCC4)c([N+](=O)[O-])cc3[N+](=O)[O-])c2)cc1`, the “Ratio IC50” value worked out at 1.6.

A further data set deals with MCF7. Put plainly: Cytotoxicity against ADR-sensitive human MCF7 cells assessed as inhibition of cell viability after 48 hrs by MTT assay. The format is cell-based. Particulars: MCF7, 48 h.
Turning to `COc1cc(/C=C/C(=O)c2cccc(Oc3cc(O/N=[N+](\[O-])N4CCCCC4)c([N+](=O)[O-])cc3[N+](=O)[O-])c2)cc(OC)c1OC`, the IC50 is 30.4 µM.

`CC(=O)N1N=C(c2cccc(Oc3cc(O/N=[N+](\[O-])N4CCCCC4)c([N+](=O)[O-])cc3[N+](=O)[O-])c2)CC1c1ccc(N(C)C)cc1` (configuration not stated): the IC50 turned out to be 20.2 µM.

Regarding `COc1ccc(/C=C/C(=O)c2cccc(Oc3cc(O/N=[N+](\[O-])N4CCCCC4)c([N+](=O)[O-])cc3[N+](=O)[O-])c2)cc1`, the IC50 was determined as 71 µM.

Another data set has as its system U2OS. Put plainly: Antiproliferative activity against human U2OS cells after 48 hrs by MTT assay relative to control.
Conditions: not given
The format is functional, cell-based.
The compound `COc1cc(/C=C/C(=O)c2cccc(Oc3cc(O/N=[N+](\[O-])N4CCCCC4)c([N+](=O)[O-])cc3[N+](=O)[O-])c2)cc(OC)c1OC` had an IC50 of 4.65 µM.

Compound `CC(=O)N1N=C(c2cccc(Oc3cc(O/N=[N+](\[O-])N4CCCCC4)c([N+](=O)[O-])cc3[N+](=O)[O-])c2)CC1c1ccc(N(C)C)cc1` (configuration not stated) had an IC50 of 6.3 µM.

Compound `COc1ccc(/C=C/C(=O)c2cccc(Oc3cc(O/N=[N+](\[O-])N4CCCCC4)c([N+](=O)[O-])cc3[N+](=O)[O-])c2)cc1` had an IC50 of 9.78 µM.

A further data set deals with HCT-116. Put plainly: Cytotoxicity against human HCT116 cells overexpressing GST-Pi assessed as inhibition of cell viability at 10 uM after 48 hrs by MTT assay relative to control. The format is functional. The note with it: HCT-116, 48 h.
As to `COc1cc(/C=C/C(=O)c2cccc(Oc3cc(O/N=[N+](\[O-])N4CCCCC4)c([N+](=O)[O-])cc3[N+](=O)[O-])c2)cc(OC)c1OC`, the inhibition at 10 µM is 63.7%.

For `CC(=O)N1N=C(c2cccc(Oc3cc(O/N=[N+](\[O-])N4CCCCC4)c([N+](=O)[O-])cc3[N+](=O)[O-])c2)CC1c1ccc(N(C)C)cc1` (configuration not stated), the inhibition at 10 µM was 81.3%.

On to `COc1ccc(/C=C/C(=O)c2cccc(Oc3cc(O/N=[N+](\[O-])N4CCCCC4)c([N+](=O)[O-])cc3[N+](=O)[O-])c2)cc1`, for which the inhibition at 10 µM turned out to be 69.5%.

Test system in a further data set: not listed separately
Put plainly: Selectivity ratio of IC50 for human MCF10A cells to IC50 for human MDA-MB-231 cells. The note with it: MCF10A cells versus MDA-MB-231 cells, read-out: Ratio IC50. The format is toxicity.
As for `COc1cc(/C=C/C(=O)c2cccc(Oc3cc(O/N=[N+](\[O-])N4CCCCC4)c([N+](=O)[O-])cc3[N+](=O)[O-])c2)cc(OC)c1OC`, the selectivity ratio is 23.6.

In the case of `CC(=O)N1N=C(c2cccc(Oc3cc(O/N=[N+](\[O-])N4CCCCC4)c([N+](=O)[O-])cc3[N+](=O)[O-])c2)CC1c1ccc(N(C)C)cc1` (configuration not stated), the selectivity ratio stood at 18.

On to `COc1ccc(/C=C/C(=O)c2cccc(Oc3cc(O/N=[N+](\[O-])N4CCCCC4)c([N+](=O)[O-])cc3[N+](=O)[O-])c2)cc1`, for which the selectivity ratio was found to be 18.3.

In another data set the test system is MDA-MB-231. Put plainly: Antiproliferative activity against human MDA-MB-231 cells after 48 hrs by MTT assay relative to control. The format is functional, cell-based. The note with it: MDA-MB-231, 48 h.
For the compound `COc1cc(/C=C/C(=O)c2cccc(Oc3cc(O/N=[N+](\[O-])N4CCCCC4)c([N+](=O)[O-])cc3[N+](=O)[O-])c2)cc(OC)c1OC`, the IC50 turned out to be 3.42 µM.

`CC(=O)N1N=C(c2cccc(Oc3cc(O/N=[N+](\[O-])N4CCCCC4)c([N+](=O)[O-])cc3[N+](=O)[O-])c2)CC1c1ccc(N(C)C)cc1` (configuration not stated): the IC50 was found to be 5.29 µM.

Take `COc1ccc(/C=C/C(=O)c2cccc(Oc3cc(O/N=[N+](\[O-])N4CCCCC4)c([N+](=O)[O-])cc3[N+](=O)[O-])c2)cc1`: inhibition was half-maximal at 6.15 µM (IC50).

Test system in the next data set: not listed separately
Put plainly: Selectivity ratio of IC50 for human A549 cells to IC50 for human MDA-MB-231 cells. The format is functional.
Conditions: not given
Regarding `COc1cc(/C=C/C(=O)c2cccc(Oc3cc(O/N=[N+](\[O-])N4CCCCC4)c([N+](=O)[O-])cc3[N+](=O)[O-])c2)cc(OC)c1OC`, the “Ratio IC50” value worked out at 1.4.

`CC(=O)N1N=C(c2cccc(Oc3cc(O/N=[N+](\[O-])N4CCCCC4)c([N+](=O)[O-])cc3[N+](=O)[O-])c2)CC1c1ccc(N(C)C)cc1` (configuration not stated): the “Ratio IC50” value is 1.4.

`COc1ccc(/C=C/C(=O)c2cccc(Oc3cc(O/N=[N+](\[O-])N4CCCCC4)c([N+](=O)[O-])cc3[N+](=O)[O-])c2)cc1`: the “Ratio IC50” value was 1.4.

The target of a further data set is T1, Glutathione S-transferase P (Homo sapiens, UniProt P09211). Put plainly: Prodrug activation in human HCT116 cells assessed as GST-Pi-mediated NO release at 5 uM after 24 hrs in presence of GST-Pi inhibitor etacrynic acid by nitrate reductase assay. The format is cell-based.
T1 sequence (P09211 whole entry): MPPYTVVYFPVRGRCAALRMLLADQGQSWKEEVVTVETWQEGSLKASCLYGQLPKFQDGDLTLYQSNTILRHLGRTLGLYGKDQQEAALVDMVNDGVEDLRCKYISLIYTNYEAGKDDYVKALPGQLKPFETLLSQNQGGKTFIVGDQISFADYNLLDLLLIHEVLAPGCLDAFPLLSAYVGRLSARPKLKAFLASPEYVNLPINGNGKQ
Conditions: not given
For the compound `CC(=O)N1N=C(c2cccc(Oc3cc(O/N=[N+](\[O-])N4CCCCC4)c([N+](=O)[O-])cc3[N+](=O)[O-])c2)CC1c1ccc(N(C)C)cc1` (configuration not stated), the Drug metabolism result is “Metabolite_Notdetected”.

In a further data set the target is T1, Glutathione S-transferase P. Put plainly: Prodrug activation in human HCT116 cells assessed as GST-Pi-mediated NO release at 5 uM after 24 hrs in presence of NO scavenger carboxy-PTIO by nitrate reductase assay. The format is cell-based.
Conditions: not given
Turning to `CC(=O)N1N=C(c2cccc(Oc3cc(O/N=[N+](\[O-])N4CCCCC4)c([N+](=O)[O-])cc3[N+](=O)[O-])c2)CC1c1ccc(N(C)C)cc1` (configuration not stated), the Drug metabolism entry is “Metabolite_Notdetected”.

The subject of the next data set is HCT-116. Put plainly: Antiproliferative activity against human HCT116 cells after 48 hrs by MTT assay relative to control. The format is functional, cell-based. The note with it: HCT-116, 48 h.
On to `COc1cc(/C=C/C(=O)c2cccc(Oc3cc(O/N=[N+](\[O-])N4CCCCC4)c([N+](=O)[O-])cc3[N+](=O)[O-])c2)cc(OC)c1OC`, for which half-maximal inhibition (IC50) required 5.29 µM.

The compound `CC(=O)N1N=C(c2cccc(Oc3cc(O/N=[N+](\[O-])N4CCCCC4)c([N+](=O)[O-])cc3[N+](=O)[O-])c2)CC1c1ccc(N(C)C)cc1` (configuration not stated) gave an IC50 of 3.43 µM.

In turn, `COc1ccc(/C=C/C(=O)c2cccc(Oc3cc(O/N=[N+](\[O-])N4CCCCC4)c([N+](=O)[O-])cc3[N+](=O)[O-])c2)cc1` showed an IC50 of 5.37 µM.

For a further data set, the target named is T1, Glutathione S-transferase P. Put plainly: Prodrug activation in human HCT116 cells assessed as GST-Pi-mediated NO release at 5 uM after 24 hrs by nitrate reductase assay. The format is cell-based.
Conditions: not given
With `CC(=O)N1N=C(c2cccc(Oc3cc(O/N=[N+](\[O-])N4CCCCC4)c([N+](=O)[O-])cc3[N+](=O)[O-])c2)CC1c1ccc(N(C)C)cc1` (configuration not stated), the Drug metabolism result is given as “Metabolite_Detected”.

Test system in a further data set: not listed separately
Put plainly: Cytotoxicity against ADR-sensitive human MCF7 cells assessed as inhibition of cell viability at 10 uM after 48 hrs by MTT assay relative to control. The format is cell-based. Particulars: read-out: INH.
For `COc1cc(/C=C/C(=O)c2cccc(Oc3cc(O/N=[N+](\[O-])N4CCCCC4)c([N+](=O)[O-])cc3[N+](=O)[O-])c2)cc(OC)c1OC`, the cytotoxicity at 48 h, 10 µM turned out to be 19.2%.

As to `CC(=O)N1N=C(c2cccc(Oc3cc(O/N=[N+](\[O-])N4CCCCC4)c([N+](=O)[O-])cc3[N+](=O)[O-])c2)CC1c1ccc(N(C)C)cc1` (configuration not stated), the cytotoxicity at 48 h, 10 µM was determined as 13.4%.

Take `COc1ccc(/C=C/C(=O)c2cccc(Oc3cc(O/N=[N+](\[O-])N4CCCCC4)c([N+](=O)[O-])cc3[N+](=O)[O-])c2)cc1`: the cytotoxicity at 48 h, 10 µM stood at 11.2%.

Another data set is filed under the species Homo sapiens. Put plainly: Inhibition of MDR in human MCF7/ADR cells assessed as potentiation of adriamycin-induced antiproliferative activity by measuring fold reduction in adriamycin IC50 at 10 uM after 48 hrs by MTT assay. The format is cell-based.
Conditions: not given
As for `COc1cc(/C=C/C(=O)c2cccc(Oc3cc(O/N=[N+](\[O-])N4CCCCC4)c([N+](=O)[O-])cc3[N+](=O)[O-])c2)cc(OC)c1OC`, the fold change (FC) stood at 42.5.

Consider `CC(=O)N1N=C(c2cccc(Oc3cc(O/N=[N+](\[O-])N4CCCCC4)c([N+](=O)[O-])cc3[N+](=O)[O-])c2)CC1c1ccc(N(C)C)cc1` (configuration not stated), for which the fold change (FC) turned out to be 26.6.

`COc1ccc(/C=C/C(=O)c2cccc(Oc3cc(O/N=[N+](\[O-])N4CCCCC4)c([N+](=O)[O-])cc3[N+](=O)[O-])c2)cc1`: the fold change (FC) was 1.53.

Test system in a further data set: not listed separately
Put plainly: Selectivity ratio of IC50 for human HCT116 cells to IC50 for human MDA-MB-231 cells. The format is functional.
Conditions: not given
As to `COc1cc(/C=C/C(=O)c2cccc(Oc3cc(O/N=[N+](\[O-])N4CCCCC4)c([N+](=O)[O-])cc3[N+](=O)[O-])c2)cc(OC)c1OC`, the “Ratio IC50” value is on record as 1.5.

`CC(=O)N1N=C(c2cccc(Oc3cc(O/N=[N+](\[O-])N4CCCCC4)c([N+](=O)[O-])cc3[N+](=O)[O-])c2)CC1c1ccc(N(C)C)cc1` (configuration not stated): the “Ratio IC50” value stood at 0.6.

For `COc1ccc(/C=C/C(=O)c2cccc(Oc3cc(O/N=[N+](\[O-])N4CCCCC4)c([N+](=O)[O-])cc3[N+](=O)[O-])c2)cc1`, the “Ratio IC50” value worked out at 0.9.
